The results in this text go back to PubChem BioAssay (NCI).

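The compound was tested at five concentrations on cells cultured in 96-well plates, with a 48-hour exposure period. GI50: concentration for 50% inhibition of growth. TGI: total growth inhibition.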

Among the test systems are IGROV1 ovarian; CCRF-CEM leukemia; 786-0 renal; NCI-H23 lung; OVCAR-3 ovarian; RPMI-8226 leukemia; NCI-H460 lung; SK-MEL-5 melanoma; EKVX NSCLC; DU-145 prostate.
Holding throughout (experiment): inhibition of tumour cell growth, NCI panel, 48 h

Regarding `C#Cc1cccc(Nc2ncnc3cc(NC(=O)CCl)ccc23)c1`, the GI50 with IGROV1 ovarian is 1.43 µM; in the assay on CCRF-CEM leukemia it was 0.626 µM; with 786-0 renal it was 1.07 µM; in the assay on NCI-H23 lung, 3.26 µM; in the assay with OVCAR-3 ovarian, 1.37 µM; in the assay with RPMI-8226 leukemia it was 1.26 µM. The GI50 in the assay with NCI-H460 lung was 2.89 µM; in the assay on SK-MEL-5 melanoma, 3.37 µM; with EKVX NSCLC, 2.5 µM; with DU-145 prostate, 2.8 µM. The TGI is 6.84 µM with IGROV1 ovarian; 2.7 µM in the assay on CCRF-CEM leukemia; 5.53 µM in the assay on 786-0 renal; 8.01 µM with NCI-H23 lung; 5.42 µM with OVCAR-3 ovarian; 6.15 µM in the assay on RPMI-8226 leukemia. In addition, the TGI is 6.63 µM in the assay on NCI-H460 lung, 6.71 µM with SK-MEL-5 melanoma, 7.01 µM with EKVX NSCLC and 5.91 µM in the assay with DU-145 prostate.
On to `CCCCN(CCCC)C(=O)[C@H](CC)[C@@H]1CC[C@@H](C)[C@@H]([C@H](C)[C@@H](O)[C@@H](C)C(=O)[C@H](CC)C2O[C@]3(C=C[C@@H](O)[C@]4(CC[C@@](C)([C@H]5CC[C@](O)(CC)[C@H](C)O5)O4)O3)[C@H](C)C[C@@H]2C)O1` (stereo not given in full), for which the GI50 in the assay with IGROV1 ovarian was 3 µM; with CCRF-CEM leukemia, 3.13 µM; in the assay with 786-0 renal, 2.49 µM; with NCI-H23 lung, 2.17 µM; in the assay on OVCAR-3 ovarian, 1.87 µM; in the assay on RPMI-8226 leukemia, 1.79 µM. Moreover, the GI50 was 1.99 µM with NCI-H460 lung, 1.73 µM in the assay with SK-MEL-5 melanoma, 2.32 µM with EKVX NSCLC and 2.61 µM in the assay with DU-145 prostate. Further, the TGI in the assay on IGROV1 ovarian is 15.2 µM; in the assay on CCRF-CEM leukemia it was 11.7 µM; in the assay on 786-0 renal, 7.44 µM; with NCI-H23 lung it was 5.96 µM; with OVCAR-3 ovarian, 4.84 µM; with RPMI-8226 leukemia it was 5.85 µM. Also, the TGI in the assay on NCI-H460 lung was 4.47 µM; in the assay with SK-MEL-5 melanoma, 3.15 µM; with EKVX NSCLC, 8.8 µM; in the assay on DU-145 prostate, 6.42 µM.
Turning to `O=C(CS(=O)(=O)c1nc2ccccc2nc1-c1ccccc1)Nc1ccc(F)cc1`, the GI50 in the assay on IGROV1 ovarian was 74 µM; in the assay with CCRF-CEM leukemia it was 3.15 µM; in the assay on 786-0 renal, more than 100 µM; in the assay on NCI-H23 lung it was more than 100 µM; in the assay on OVCAR-3 ovarian, 30.6 µM; in the assay with RPMI-8226 leukemia, 29.1 µM. Moreover, the GI50 in the assay on NCI-H460 lung was 88.8 µM; in the assay on SK-MEL-5 melanoma, 23.9 µM; with EKVX NSCLC, more than 100 µM; in the assay with DU-145 prostate it was 36.1 µM. For the same compound, the TGI is more than 100 µM in the assay on IGROV1 ovarian; 18.8 µM in the assay with CCRF-CEM leukemia; more than 100 µM with 786-0 renal; more than 100 µM with NCI-H23 lung; more than 100 µM with OVCAR-3 ovarian; more than 100 µM with RPMI-8226 leukemia. Further, the TGI in the assay with NCI-H460 lung is more than 100 µM; with SK-MEL-5 melanoma, 94.6 µM; with EKVX NSCLC it was more than 100 µM; in the assay with DU-145 prostate, more than 100 µM.
On to `CCN(CC)c1ccc(/C=C/C(=O)c2ccc(Nc3nc(Nc4ccccc4)nc(Nc4ccccc4)n3)cc2)cc1`, for which the GI50 was 4.64 µM with IGROV1 ovarian; 3.15 µM in the assay on CCRF-CEM leukemia; 5.21 µM in the assay on 786-0 renal; 11.1 µM with NCI-H23 lung; 2.12 µM with OVCAR-3 ovarian; 3.26 µM in the assay on RPMI-8226 leukemia. Moreover, the GI50 in the assay on NCI-H460 lung is 2.55 µM; with SK-MEL-5 melanoma, 1.17 µM; in the assay with EKVX NSCLC it was 4.07 µM; with DU-145 prostate it was 5.04 µM. In addition, the TGI is more than 100 µM in the assay with IGROV1 ovarian; more than 100 µM in the assay with CCRF-CEM leukemia; 27.7 µM with 786-0 renal; more than 100 µM with NCI-H23 lung; 20 µM in the assay with OVCAR-3 ovarian; more than 100 µM with RPMI-8226 leukemia. The TGI in the assay with NCI-H460 lung was 17.6 µM; in the assay on SK-MEL-5 melanoma it was 44.9 µM; in the assay on EKVX NSCLC it was more than 100 µM; in the assay with DU-145 prostate, 79.2 µM.
Turning to `COc1cc(CNCCCCCCN2C(=O)c3cccc4cccc(c34)C2=O)ccc1O`, the GI50 in the assay on IGROV1 ovarian is 3.72 µM; with CCRF-CEM leukemia, 3.53 µM; with 786-0 renal, 5.59 µM; with NCI-H23 lung it was 10.8 µM; in the assay with OVCAR-3 ovarian it was 4.11 µM; in the assay on RPMI-8226 leukemia, 2.63 µM. The GI50 was 3.71 µM with NCI-H460 lung, 2 µM in the assay with SK-MEL-5 melanoma, 13.1 µM with EKVX NSCLC and 6.08 µM in the assay on DU-145 prostate. Also, the TGI with IGROV1 ovarian amounted to 16.2 µM; in the assay on CCRF-CEM leukemia it was 29.3 µM; in the assay with 786-0 renal it was 19.9 µM; with NCI-H23 lung it was 25.2 µM; with OVCAR-3 ovarian, 16.6 µM; in the assay on RPMI-8226 leukemia, 7.19 µM. Besides, the TGI with NCI-H460 lung turned out to be 15.9 µM; with SK-MEL-5 melanoma it was 5.92 µM; in the assay on EKVX NSCLC, 29.8 µM; in the assay on DU-145 prostate it was 18.9 µM.
Consider `COc1ccc(-c2cc(-c3ccc(Nc4nc(Nc5ccccc5)nc(Nc5ccc(Cl)cc5)n4)cc3)nc(N)n2)cc1`, for which the GI50 in the assay with IGROV1 ovarian is 6.27 µM; with CCRF-CEM leukemia, 6 µM; in the assay on 786-0 renal, 11.5 µM; with NCI-H23 lung, 9.4 µM; with OVCAR-3 ovarian it was 11.3 µM; in the assay with RPMI-8226 leukemia, 5.15 µM. The GI50 in the assay with NCI-H460 lung is 8.57 µM; with SK-MEL-5 melanoma, 6.55 µM; in the assay with EKVX NSCLC, 6.55 µM; in the assay with DU-145 prostate it was 12.1 µM. Moreover, the TGI in the assay with IGROV1 ovarian was 28.2 µM; in the assay with CCRF-CEM leukemia, 29.5 µM; with 786-0 renal it was 33.1 µM; in the assay on NCI-H23 lung it was 25.9 µM; with OVCAR-3 ovarian, more than 50 µM; in the assay with RPMI-8226 leukemia it was 20.5 µM. Also, the TGI in the assay on NCI-H460 lung is 26.7 µM; with SK-MEL-5 melanoma, 20.9 µM; in the assay on EKVX NSCLC it was more than 50 µM; in the assay with DU-145 prostate, 26.9 µM.
For the compound `COc1cc2oc(-c3cccc(C(=O)Nc4ccc(Cl)cc4)c3)cc(=O)c2c(OC)c1OC`, the GI50 is 2.31 µM in the assay with IGROV1 ovarian; 2.28 µM with CCRF-CEM leukemia; 2.53 µM in the assay with 786-0 renal; 3.6 µM with NCI-H23 lung; 3.6 µM in the assay on OVCAR-3 ovarian; 0.49 µM with RPMI-8226 leukemia. Also, the GI50 with NCI-H460 lung is 2.76 µM; in the assay on SK-MEL-5 melanoma, 1.28 µM; in the assay with EKVX NSCLC, 2.43 µM; in the assay on DU-145 prostate, 2.85 µM. Further, the TGI in the assay on IGROV1 ovarian was more than 100 µM; in the assay with CCRF-CEM leukemia, more than 100 µM; in the assay with 786-0 renal it was more than 100 µM; in the assay with NCI-H23 lung, more than 100 µM; with OVCAR-3 ovarian, more than 100 µM; in the assay on RPMI-8226 leukemia, 3.79 µM. For the same compound, the TGI is more than 100 µM with NCI-H460 lung, 2.68 µM in the assay with SK-MEL-5 melanoma, more than 100 µM with EKVX NSCLC and more than 100 µM in the assay on DU-145 prostate.
Turning to `COc1cc2c(c(OC)c1OC)-c1ccc(NN(C(=O)c3ccccc3)C(=O)c3ccccc3)c(=O)cc1[C@@H](NC(C)=O)CC2` (tested in a mixture with another compound), the GI50 in the assay with IGROV1 ovarian is 4.6 µM; in the assay with CCRF-CEM leukemia, 3.57 µM; with 786-0 renal, 3.31 µM; in the assay with NCI-H23 lung, 3.91 µM; in the assay on OVCAR-3 ovarian, 2.8 µM; in the assay with RPMI-8226 leukemia, 4.72 µM. Also, the GI50 was 2.98 µM in the assay with NCI-H460 lung, 2.49 µM with SK-MEL-5 melanoma, 8.09 µM with EKVX NSCLC and 3.3 µM in the assay on DU-145 prostate. The TGI was 63 µM with IGROV1 ovarian; more than 100 µM with CCRF-CEM leukemia; 13.4 µM in the assay with 786-0 renal; 37.6 µM with NCI-H23 lung; 13.4 µM with OVCAR-3 ovarian; 82.5 µM in the assay with RPMI-8226 leukemia. In addition, the TGI in the assay with NCI-H460 lung is 11.2 µM; in the assay on SK-MEL-5 melanoma, 11 µM; in the assay on EKVX NSCLC, more than 100 µM; in the assay on DU-145 prostate, more than 100 µM.
In the case of `CCOC(=O)CSc1cc(Cl)c(C)cc1S(=O)(=O)/N=C(/N=C/c1ccc([N+](=O)[O-])s1)NNC`, the GI50 in the assay on IGROV1 ovarian is 42.7 µM; in the assay with CCRF-CEM leukemia, 30.3 µM; in the assay on 786-0 renal, 20.2 µM; with NCI-H23 lung it was 14.5 µM; in the assay with OVCAR-3 ovarian it was 10.3 µM; in the assay with RPMI-8226 leukemia, 36.7 µM. Besides, the GI50 in the assay on NCI-H460 lung was 35.1 µM; with SK-MEL-5 melanoma it was 15.2 µM; in the assay on EKVX NSCLC, 19.7 µM; in the assay with DU-145 prostate it was 7.45 µM. Further, the TGI with IGROV1 ovarian was more than 100 µM; with CCRF-CEM leukemia, more than 100 µM; with 786-0 renal it was 42.5 µM; in the assay with NCI-H23 lung, 37.2 µM; with OVCAR-3 ovarian it was 24.7 µM; in the assay with RPMI-8226 leukemia, more than 100 µM. Further, the TGI is more than 100 µM with NCI-H460 lung, 29 µM with SK-MEL-5 melanoma, 49.2 µM with EKVX NSCLC and 41.2 µM in the assay with DU-145 prostate.
